According to ChEMBL document CHEMBL1697731, “Cheminformatics analysis of assertions mined from literature that describe drug-induced liver injury in different species” (Chem Res Toxicol, 2010):

Tests used:
[1] = system: Hepatotoxicity; test: Literature-mined compound from Fourches et al multi-species drug-induced liver injury (DILI) dataset, effect in humans; conditions: human
[2] = system: Hepatotoxicity; test: Literature-mined compound from Fourches et al multi-species drug-induced liver injury (DILI) dataset, effect in rodents; conditions: rodentia
[3] = system: Hepatotoxicity; test: Literature-mined compound from Fourches et al multi-species drug-induced liver injury (DILI) dataset, effect in non-rodents

Question: Which results are given for `NNC(=O)c1ccncc1` [ISONIAZID]?
Answer: Hepatotoxicity [1]: drug-induced liver injury reported; Hepatotoxicity [2]: drug-induced liver injury reported; Hepatotoxicity [3]: drug-induced liver injury reported

Question: How did the Hepatotoxicity [1] turn out when `Cc1cc2c(cc1CC(=O)c1sccc1S(=O)(=O)Nc1onc(C)c1Cl)OCO2` [SITAXENTAN] was run?
Answer: The Hepatotoxicity was “drug-induced liver injury reported”.

Question: And the Hepatotoxicity [2]?
Answer: The Hepatotoxicity was “no drug-induced liver injury reported”.

Question: And the Hepatotoxicity [3]?
Answer: The Hepatotoxicity was “no drug-induced liver injury reported”.

Question: Which results are given for `CC(C(=O)O)c1ccc2c(c1)[nH]c1ccc(Cl)cc12` (configuration not stated) [CARPROFEN]?
Answer: Hepatotoxicity [1]: no drug-induced liver injury reported; Hepatotoxicity [2]: no drug-induced liver injury reported; Hepatotoxicity [3]: drug-induced liver injury reported

Question: For `CC(C)(C)NCC(O)COc1cccc2c1CC(O)C(O)C2` (configuration not stated) [NADOLOL], which Hepatotoxicity [1] is on record?
Answer: Its Hepatotoxicity is “drug-induced liver injury reported”.

Question: What about the Hepatotoxicity [2] of the same compound?
Answer: Its Hepatotoxicity is “no drug-induced liver injury reported”.

Question: And the Hepatotoxicity [3]?
Answer: The Hepatotoxicity was “no drug-induced liver injury reported”.

Question: What does the source list for `C=CCC1(C(C)C#CCC)C(=O)N=C([O-])N(C)C1=O.[Na+]` (configuration not stated) [METHOHEXITAL SODIUM]?
Answer: Hepatotoxicity [1]: no drug-induced liver injury reported; Hepatotoxicity [2]: drug-induced liver injury reported; Hepatotoxicity [3]: no drug-induced liver injury reported

Question: `NC(=O)N/N=C/c1ccc([N+](=O)[O-])o1` [NITROFURAZONE] was tested. Which Hepatotoxicity [1] did it give?
Answer: The Hepatotoxicity was “no drug-induced liver injury reported”.

Question: What about the Hepatotoxicity [2] of the same compound?
Answer: The Hepatotoxicity was “drug-induced liver injury reported”.

Question: And the Hepatotoxicity [3]?
Answer: The Hepatotoxicity was “no drug-induced liver injury reported”.

Question: How did the Hepatotoxicity [1] turn out when `CCN(CC)CCCC(C)Nc1ccnc2cc(Cl)ccc12` (configuration not stated) [CHLOROQUINE] was run?
Answer: Its Hepatotoxicity is “drug-induced liver injury reported”.

Question: And the Hepatotoxicity [2]?
Answer: Its Hepatotoxicity is “drug-induced liver injury reported”.

Question: What about the Hepatotoxicity [3] of the same compound?
Answer: The Hepatotoxicity was “drug-induced liver injury reported”.

Question: What does the source list for `Clc1ccc2c(c1)C(c1ccccc1)=NCc1nncn1-2` [ESTAZOLAM]?
Answer: Hepatotoxicity [1]: no drug-induced liver injury reported; Hepatotoxicity [2]: drug-induced liver injury reported; Hepatotoxicity [3]: no drug-induced liver injury reported

Question: What does the source list for `CCc1c2c(nc3ccc(OC(=O)N4CCC(N5CCCCC5)CC4)cc13)-c1cc3c(c(=O)n1C2)COC(=O)[C@]3(O)CC` [IRINOTECAN]?
Answer: Hepatotoxicity [1]: drug-induced liver injury reported; Hepatotoxicity [2]: no drug-induced liver injury reported; Hepatotoxicity [3]: no drug-induced liver injury reported

Question: What does the source list for `N[C@@H](Cc1ccc(N(CCCl)CCCl)cc1)C(=O)O`?
Answer: Hepatotoxicity [1]: drug-induced liver injury reported; Hepatotoxicity [2]: drug-induced liver injury reported; Hepatotoxicity [3]: no drug-induced liver injury reported

Question: What does the source list for `Cc1cccc(CN2CCN(C(c3ccccc3)c3ccc(Cl)cc3)CC2)c1` (configuration not stated) [MECLIZINE]?
Answer: Hepatotoxicity [1]: no drug-induced liver injury reported; Hepatotoxicity [2]: drug-induced liver injury reported; Hepatotoxicity [3]: no drug-induced liver injury reported

Question: What does the source list for `Cc1cc(-c2ccc(/N=N/c3c(S(=O)(=O)[O-])cc4cc(S(=O)(=O)[O-])cc(N)c4c3O)c(C)c2)ccc1/N=N/c1c(S(=O)(=O)[O-])cc2cc(S(=O)(=O)[O-])cc(N)c2c1O.[Na+].[Na+].[Na+].[Na+]` [TRYPAN BLUE]?
Answer: Hepatotoxicity [1]: no drug-induced liver injury reported; Hepatotoxicity [2]: drug-induced liver injury reported; Hepatotoxicity [3]: no drug-induced liver injury reported

Question: Which results are given for `OCC(O)CO` [GLYCERIN]?
Answer: Hepatotoxicity [1]: drug-induced liver injury reported; Hepatotoxicity [2]: drug-induced liver injury reported; Hepatotoxicity [3]: drug-induced liver injury reported

Question: For `CN1CCc2cccc3c2[C@H]1Cc1ccc(O)c(O)c1-3` [APOMORPHINE], which Hepatotoxicity [1] is on record?
Answer: The Hepatotoxicity was “no drug-induced liver injury reported”.

Question: What about the Hepatotoxicity [2] of the same compound?
Answer: Its Hepatotoxicity is “drug-induced liver injury reported”.

Question: What about the Hepatotoxicity [3] of the same compound?
Answer: The Hepatotoxicity was “no drug-induced liver injury reported”.

Question: For `Clc1ccc(COC(Cn2ccnc2)c2ccc(Cl)cc2Cl)c(Cl)c1` (configuration not stated) [MICONAZOLE], which Hepatotoxicity [1] is on record?
Answer: The Hepatotoxicity was “drug-induced liver injury reported”.

Question: And the Hepatotoxicity [2]?
Answer: Its Hepatotoxicity is “drug-induced liver injury reported”.

Question: And the Hepatotoxicity [3]?
Answer: The Hepatotoxicity was “no drug-induced liver injury reported”.

Question: For `CC(=O)O` [ACETIC ACID], which Hepatotoxicity ([1]; Liver) is on record?
Answer: The Hepatotoxicity was “drug-induced liver injury reported”.

Question: What about the Hepatotoxicity ([2]; Liver) of the same compound?
Answer: The Hepatotoxicity was “drug-induced liver injury reported”.

Question: And the Hepatotoxicity ([3]; Liver)?
Answer: Its Hepatotoxicity is “drug-induced liver injury reported”.

Question: What does the source list for `Cc1nnc(NS(=O)(=O)c2ccc(N)cc2)s1` [SULFAMETHIZOLE]?
Answer: Hepatotoxicity [1]: drug-induced liver injury reported; Hepatotoxicity [2]: no drug-induced liver injury reported; Hepatotoxicity [3]: no drug-induced liver injury reported

Question: With `O=C1c2c(O)cccc2Cc2cccc(O)c21` [ANTHRALIN] as the compound, how does the Hepatotoxicity [1] read?
Answer: The Hepatotoxicity was “drug-induced liver injury reported”.

Question: And the Hepatotoxicity [2]?
Answer: Its Hepatotoxicity is “drug-induced liver injury reported”.

Question: What about the Hepatotoxicity [3] of the same compound?
Answer: The Hepatotoxicity was “no drug-induced liver injury reported”.

Question: For `CCOc1ccc(NC(C)=O)cc1` [PHENACETIN], which Hepatotoxicity [1] is on record?
Answer: The Hepatotoxicity was “drug-induced liver injury reported”.

Question: What about the Hepatotoxicity [2] of the same compound?
Answer: Its Hepatotoxicity is “drug-induced liver injury reported”.

Question: And the Hepatotoxicity [3]?
Answer: The Hepatotoxicity was “no drug-induced liver injury reported”.

Question: With `CO[C@]12CC[C@@]3(C[C@@H]1[C@](C)(O)C(C)(C)C)[C@H]1Cc4ccc(O)c5c4[C@@]3(CCN1CC1CC1)[C@H]2O5` [BUPRENORPHINE] as the compound, how does the Hepatotoxicity [1] read?
Answer: The Hepatotoxicity was “drug-induced liver injury reported”.

Question: And the Hepatotoxicity [2]?
Answer: Its Hepatotoxicity is “drug-induced liver injury reported”.

Question: What about the Hepatotoxicity [3] of the same compound?
Answer: The Hepatotoxicity was “no drug-induced liver injury reported”.

Question: For `O=C([O-])c1ccccc1.[Na+]` [SODIUM BENZOATE], which Hepatotoxicity [1] is on record?
Answer: Its Hepatotoxicity is “no drug-induced liver injury reported”.

Question: What about the Hepatotoxicity [2] of the same compound?
Answer: The Hepatotoxicity was “drug-induced liver injury reported”.

Question: And the Hepatotoxicity [3]?
Answer: Its Hepatotoxicity is “no drug-induced liver injury reported”.

Question: `CC(=O)c1ccc(S(=O)(=O)NC(=O)NC2CCCCC2)cc1` [ACETOHEXAMIDE] was tested. Which Hepatotoxicity [1] did it give?
Answer: Its Hepatotoxicity is “drug-induced liver injury reported”.

Question: What about the Hepatotoxicity [2] of the same compound?
Answer: Its Hepatotoxicity is “no drug-induced liver injury reported”.

Question: And the Hepatotoxicity [3]?
Answer: Its Hepatotoxicity is “no drug-induced liver injury reported”.

Question: Which Hepatotoxicity [1] does the source give for `ClC(Cl)=C(Cl)Cl` [TETRACHLOROETHYLENE] here?
Answer: Its Hepatotoxicity is “drug-induced liver injury reported”.

Question: And the Hepatotoxicity [2]?
Answer: Its Hepatotoxicity is “drug-induced liver injury reported”.

Question: What about the Hepatotoxicity [3] of the same compound?
Answer: The Hepatotoxicity was “no drug-induced liver injury reported”.

Question: Which Hepatotoxicity ([1]; Liver) does the source give for `Cl.Cl.NCCc1c[nH]cn1` [HISTAMINE DIHYDROCHLORIDE] here?
Answer: The Hepatotoxicity was “no drug-induced liver injury reported”.

Question: And the Hepatotoxicity ([2]; Liver)?
Answer: Its Hepatotoxicity is “drug-induced liver injury reported”.

Question: And the Hepatotoxicity ([3]; Liver)?
Answer: Its Hepatotoxicity is “no drug-induced liver injury reported”.

Question: Which results are given for `N[C@@H](Cc1ccc(O)c(O)c1)C(=O)O` [LEVODOPA]?
Answer: Hepatotoxicity [1]: drug-induced liver injury reported; Hepatotoxicity [2]: drug-induced liver injury reported; Hepatotoxicity [3]: no drug-induced liver injury reported

Question: TYLOXAPOL was tested. Which Hepatotoxicity [1] did it give?
Answer: The Hepatotoxicity was “no drug-induced liver injury reported”.

Question: And the Hepatotoxicity [2]?
Answer: Its Hepatotoxicity is “drug-induced liver injury reported”.

Question: And the Hepatotoxicity [3]?
Answer: The Hepatotoxicity was “no drug-induced liver injury reported”.

Question: What does the source list for `NS(=O)(=O)c1cc2c(cc1Cl)NCNS2(=O)=O` [HYDROCHLOROTHIAZIDE]?
Answer: Hepatotoxicity [1]: drug-induced liver injury reported; Hepatotoxicity [2]: no drug-induced liver injury reported; Hepatotoxicity [3]: no drug-induced liver injury reported

Question: How did the Hepatotoxicity [1] turn out when `COc1cc(N)c(Cl)cc1C(=O)NC1CCN(CCCOc2ccc(F)cc2)CC1OC` (configuration not stated) [CISAPRIDE] was run?
Answer: Its Hepatotoxicity is “drug-induced liver injury reported”.

Question: What about the Hepatotoxicity [2] of the same compound?
Answer: The Hepatotoxicity was “no drug-induced liver injury reported”.

Question: And the Hepatotoxicity [3]?
Answer: Its Hepatotoxicity is “no drug-induced liver injury reported”.

Question: `CNC(=C[N+](=O)[O-])NCCSCc1csc(CN(C)C)n1` [NIZATIDINE] was tested. Which Hepatotoxicity [1] did it give?
Answer: Its Hepatotoxicity is “drug-induced liver injury reported”.

Question: And the Hepatotoxicity [2]?
Answer: The Hepatotoxicity was “drug-induced liver injury reported”.

Question: And the Hepatotoxicity [3]?
Answer: The Hepatotoxicity was “no drug-induced liver injury reported”.
